In patent US10849983B2, “Development of soluble albuminated curcumin for application in cancer therapy” (Sree Chitra Tirunal Institute for Medical Sciences and …, priority 2013, dated 2020):

Key:
lung cancer (A549) cells = assay: A549 lung cancer cells, phase contrast microscopy, cell cycle analysis and apoptosis by flow cytometry; format: cell-based, human; conditions: 48h, Flowjo
Description: (§1) To study the effect of the drug conjugate on cancer cells, Lung (A549), Leukemia (K562), & Prostate (PC-3) cell lines were procured from NCCS, Pune. On receipt, the cell lines were sub cultured and sufficient numbers of vials were stored in […]. deep freezer. To study the effect of curcumin on angiogenesis, primary endothelial cells isolated from sheep was used. The effects on primary human fibroblast cells were also studied. Each cell line was maintained in their respective recommended media. A549, PC3 and fibroblast cells were maintained in DMEM media with 10% FBS. K562 cells were maintained in IMDM media supplemented with 10% FBS and endothelial cells in MCDB media with 10% FBS, L-ascorbic acid, VEGF and L-Glutamine.
(§2) The effect of curcumin was analyzed on cell apoptosis and cycle arrest. Different concentrations of the alb-cur conjugate were added into the cultures. The concentrations employed were 250 μM, 500 μM, and 1000 μM which were achieved by adding stock prepared by dissolving lyophilized curcumin-albumin conjugate.
(§3) The efficacy of the loaded drug was analyzed using solid tumor cell lines of prostate cancer (PC-3) [FIGS. 4 & 5] lung cancer (A549) [FIGS. 6 & 7B] and suspension cell line of leukemia (K562) [FIGS. 7A & 8]. The toxicity of the conjugated albumin-curcumin complex was assed by Live/Dead assay using Annexin V in primary fibroblasts. […]

[1] = tested on: prostate cancer (PC-3) cells; assay: PC-3 cells, phase contrast microscopy and Live/Dead (Annexin V) assay; format: cell-based, human; conditions: 24h, phase contrast microscopy, curcumin in DMSO
Description: as §1, §2, §3

| Structure (SMILES) | cell cycle distribution of A549 cells (positive control) (lung cancer (A549) cells) | morphology of PC-3 cells [1] |
| --- | --- | --- |
| O=c1[nH]cc(F)c(=O)[nH]1 [Example 5-FU] | slight increase in the population of cells in the S phase |  |
| COc1cc(/C=C/C(=O)CC(=O)/C=C/c2ccc(O)c(OC)c2)ccc1O [cur/DMSO, curcumin] |  | normal morphological features |
